Experimental data published in PMC11341970 (RSC Advances, 2024).
Where two headings read alike, the source gives them in different places.

How the values were obtained:
[1] = target: EeAChE (Electrophorus electricus, UniProt O42275); assay: AChE inhibition assay; format: biochemical; conditions: for AChE inhibition (% of inhibition): concentration not given
[2] = target: hBACE 1 (Homo sapiens, UniProt P56817); assay: BACE 1 inhibition assay; format: biochemical
[3] = read-out: eeAChE IC50 (μM) ± SD, Ellman assay, mean ± SD of three experiments
[4] = read-out: hBACE 1 IC50 (μM) ± SD, FRET assay, mean ± SD of three experiments

Chain of hBACE 1 (P56817 46-501): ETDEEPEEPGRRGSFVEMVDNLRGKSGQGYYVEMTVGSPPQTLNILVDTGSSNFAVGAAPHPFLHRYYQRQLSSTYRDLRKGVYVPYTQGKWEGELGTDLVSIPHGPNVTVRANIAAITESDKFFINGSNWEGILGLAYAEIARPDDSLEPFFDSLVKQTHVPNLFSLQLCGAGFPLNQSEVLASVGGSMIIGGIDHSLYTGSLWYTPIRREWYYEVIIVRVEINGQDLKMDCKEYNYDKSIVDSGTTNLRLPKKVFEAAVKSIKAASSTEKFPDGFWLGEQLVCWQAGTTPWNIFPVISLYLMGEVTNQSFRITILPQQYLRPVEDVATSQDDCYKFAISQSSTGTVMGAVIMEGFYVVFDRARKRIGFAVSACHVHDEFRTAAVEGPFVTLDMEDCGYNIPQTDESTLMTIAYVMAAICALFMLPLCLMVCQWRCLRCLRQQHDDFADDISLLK
Chain of EeAChE (O42275 24-633): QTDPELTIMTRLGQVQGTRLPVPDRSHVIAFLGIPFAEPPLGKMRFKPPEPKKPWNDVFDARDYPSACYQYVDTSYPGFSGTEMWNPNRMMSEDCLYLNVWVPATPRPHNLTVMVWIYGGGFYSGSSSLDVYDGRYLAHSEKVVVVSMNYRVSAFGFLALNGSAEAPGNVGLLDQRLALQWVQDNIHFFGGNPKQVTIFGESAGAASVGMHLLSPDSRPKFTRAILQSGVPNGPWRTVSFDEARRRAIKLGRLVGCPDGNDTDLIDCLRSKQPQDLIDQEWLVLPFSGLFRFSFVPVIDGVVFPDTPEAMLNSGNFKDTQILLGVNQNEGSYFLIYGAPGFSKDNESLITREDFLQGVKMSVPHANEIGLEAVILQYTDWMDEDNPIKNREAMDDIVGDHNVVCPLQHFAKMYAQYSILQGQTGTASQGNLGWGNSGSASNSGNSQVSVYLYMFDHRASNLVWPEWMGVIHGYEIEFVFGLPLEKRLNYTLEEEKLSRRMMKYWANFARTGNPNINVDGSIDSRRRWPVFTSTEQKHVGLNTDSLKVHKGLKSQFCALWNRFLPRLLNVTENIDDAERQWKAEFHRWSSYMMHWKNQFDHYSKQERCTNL

[H]/N=C(/N)NN=C(/C=C/c1ccccc1)c1cccn1Cc1ccccc1 [Compound 1a, (Z)-2-((E)-1-(1-Benzyl-1H-pyrrol-2-yl)-3-phenylallylidene)hydrazine-1-carboximidamide]
IC50 [1]: 215.3 ± 0.14 µM | IC50 [2]: 169.9 ± 1.27 µM

[H]/N=C(/N)NN=C(/C=C/c1ccccc1Cl)c1cccn1Cc1ccccc1 [Compound 1b, (Z)-2-((E)-1-(1-Benzyl-1H-pyrrol-2-yl)-3-(2-chlorophenyl)allylidene)hydrazine-1-carboximidamide]
IC50 [1]: 174 ± 0.92 µM | IC50 [2]: 183.8 ± 0.92 µM

[H]/N=C(/N)NN=C(/C=C/c1ccc([N+](=O)[O-])cc1)c1cccn1Cc1ccccc1 [Compound 1c, (Z)-2-((E)-1-(1-Benzyl-1H-pyrrol-2-yl)-3-(4-nitrophenyl)allylidene)hydrazine-1-carboximidamide]
IC50 [1]: 43.25 ± 0.41 µM | AChE inhibition (% of inhibition) [1]: 38.07% | IC50 [2]: 194.3 ± 0.99 µM

[H]/N=C(/N)NN=C(/C=C/c1ccc(Cl)cc1Cl)c1cccn1Cc1ccccc1 [Compound 1d, (Z)-2-((E)-1-(1-Benzyl-1H-pyrrol-2-yl)-3-(2,4-dichlorophenyl)allylidene)hydrazine-1-carboximidamide]
IC50 [1]: 55.4 ± 0.91 µM | AChE inhibition (% of inhibition) [1]: 26.75% | IC50 [2]: 207.9 ± 1.91 µM

[H]/N=C(/N)NN=C(/C=C/c1ccccc1F)c1cccn1Cc1ccccc1 [Compound 1e, (Z)-2-((E)-1-(1-Benzyl-1H-pyrrol-2-yl)-3-(2-fluorophenyl)allylidene)hydrazine-1-carboximidamide]
IC50 [1]: 172.3 ± 1.56 µM | IC50 [2]: 174.5 ± 1.48 µM

[H]/N=C(/N)NN=C(/C=C/c1ccc(OC)cc1)c1cccn1Cc1ccccc1 [Compound 1f, (Z)-2-((E)-1-(1-Benzyl-1H-pyrrol-2-yl)-3-(4-methoxyphenyl)allylidene)hydrazine-1-carboximidamide]
IC50 [1]: 139.1 ± 0.35 µM | IC50 [2]: 173 ± 1.06 µM

[H]/N=C(/N)NN=C(/C=C/c1ccc(OC)c(OC)c1)c1cccn1Cc1ccccc1 [Compound 1g, (Z)-2-((E)-1-(1-Benzyl-1H-pyrrol-2-yl)-3-(3,4-dimethoxyphenyl)allylidene)hydrazine-1-carboximidamide]
IC50 [1]: 146 ± 2.4 µM | IC50 [2]: 114 ± 1.7 µM

[H]/N=C(/N)NN=C(/C=C/c1ccc(C(C)C)cc1)c1cccn1Cc1ccccc1 [Compound 1h, (Z)-2-((E)-1-(1-Benzyl-1H-pyrrol-2-yl)-3-(4-isopropylphenyl)allylidene)hydrazine-1-carboximidamide]
IC50 [1]: 203.8 ± 1.7 µM | IC50 [2]: 108 ± 1.2 µM

[H]/N=C(/N)NN=C(/C=C/c1cccc(OC)c1)c1cccn1Cc1ccccc1 [Compound 1i, (Z)-2-((E)-1-(1-Benzyl-1H-pyrrol-2-yl)-3-(3-methoxyphenyl)allylidene)hydrazine-1-carboximidamide]
IC50 [1]: 206.6 ± 0.49 µM | IC50 [2]: 134.1 ± 0.21 µM

[H]/N=C(/N)NN=C(/C=C/c1ccccn1)c1cccn1Cc1ccccc1 [Compound 1j, (Z)-2-((E)-1-(1-Benzyl-1H-pyrrol-2-yl)-3-(pyridin-2-yl)allylidene)hydrazine-1-carboximidamide]
IC50 [1]: 95.6 ± 2.4 µM | IC50 [2]: 13.7 ± 0.77 µM | BACE 1 inhibition (%) ([2]; concentration not given): 43.62%

[H]/N=C(/N)NN=C(/C=C/c1ccccc1)c1cccn1Cc1cc(OC)cc(OC)c1 [Compound 2a, (Z)-2-((E)-1-(1-(3,5-Dimethoxybenzyl)-1H-pyrrol-2-yl)-3-phenylallylidene)hydrazine-1-carboximidamide]
IC50 [1]: 231.2 ± 2.26 µM | IC50 [2]: 95.8 ± 3.45 µM

[H]/N=C(/N)NN=C(/C=C/c1ccccc1)c1cccn1Cc1ccc(OC(F)(F)F)cc1 [Compound 2b, (Z)-2-((E)-3-Phenyl-1-(1-(4-(trifluoromethoxy)benzyl)-1H-pyrrol-2-yl)allylidene)hydrazine-1-carboximidamide]
IC50 [1, 3]: 231.7 ± 1.27 µM | IC50 [2, 4]: 86.19 ± 0.38 µM

[H]/N=C(/N)NN=C(/C=C/c1ccccc1)c1cccn1Cc1ccc(OC(F)F)cc1 [Compound 2c, (Z)-2-((E)-1-(1-(4-(Difluoromethoxy)benzyl)-1H-pyrrol-2-yl)-3-phenylallylidene)hydrazine-1-carboximidamide]
IC50 [1, 3]: 195.8 ± 0.99 µM | IC50 [2, 4]: 15.4 ± 0.24 µM

[H]/N=C(/N)NN=C(/C=C/c1ccccc1)c1cccn1Cc1cc(F)ccc1F [Compound 2d, (Z)-2-((E)-1-(1-(2,5-Difluorobenzyl)-1H-pyrrol-2-yl)-3-phenylallylidene)hydrazine-1-carboximidamide]
IC50 [1, 3]: 153 ± 1.98 µM | IC50 [2, 4]: 107 ± 3.04 µM

[H]/N=C(/N)NN=C(/C=C/c1ccccc1)c1cccn1Cc1cc(Cl)ccc1Cl [Compound 2e, (Z)-2-((E)-1-(1-(2,5-Dichlorobenzyl)-1H-pyrrol-2-yl)-3-phenylallylidene)hydrazine-1-carboximidamide]
IC50 [1]: 75.6 ± 3.09 µM | IC50 [2]: 178.2 ± 0.92 µM

[H]/N=C(/N)NN=C(/C=C/c1ccccc1)c1cccn1Cc1ccc(C)cc1 [Compound 2f, (Z)-2-((E)-1-(1-(4-Methylbenzyl)-1H-pyrrol-2-yl)-3-phenylallylidene)hydrazine-1-carboximidamide]
IC50 [1]: 176.7 ± 0.64 µM | IC50 [2]: 85.7 ± 2.43 µM

[H]/N=C(/N)NN=C(/C=C/c1ccccc1)c1cccn1Cc1ccccc1F [Compound 2g, (Z)-2-((E)-1-(1-(2-Fluorobenzyl)-1H-pyrrol-2-yl)-3-phenylallylidene)hydrazine-1-carboximidamide]
IC50 [1]: 163 ± 3.18 µM | IC50 [2]: 100.8 ± 0.57 µM

[H]/N=C(/N)NN=C(/C=C/c1ccccc1)c1cccn1Cc1ccc(F)cc1C(F)(F)F [Compound 2h, (Z)-2-((E)-1-(1-(4-Fluoro-2-(trifluoromethyl)benzyl)-1H-pyrrol-2-yl)-3-phenylallylidene)hydrazine-1-carboximidamide]
IC50 [1]: 57.1 ± 3.91 µM | IC50 [2]: 74.2 ± 1.8 µM

[H]/N=C(/N)NN=C(/C=C/c1ccccc1)c1cccn1Cc1cc(C(F)(F)F)cc(C(F)(F)F)c1 [Compound 2i, (Z)-2-((E)-1-(1-(3,5-Bis(trifluoromethyl)benzyl)-1H-pyrrol-2-yl)-3-phenylallylidene)hydrazine-1-carboximidamide]
IC50 [1]: 77.56 ± 0.66 µM | IC50 [2]: 139.1 ± 1.13 µM

[H]/N=C(/N)NN=C(/C=C/c1ccccc1)c1cccn1Cc1ccc(CCCC)cc1 [Compound 2j, (Z)-2-((E)-1-(1-(4-Butylbenzyl)-1H-pyrrol-2-yl)-3-phenylallylidene)hydrazine-1-carboximidamide]
IC50 [1]: 55.4 ± 4.19 µM | IC50 [2]: 132.7 ± 1.22 µM

[H]/N=C(/N)NN=C(/C=C/c1ccccc1)c1cccn1Cc1ccc(F)cc1F [Compound 2k, (Z)-2-((E)-1-(1-(2,4-Difluorobenzyl)-1H-pyrrol-2-yl)-3-phenylallylidene)hydrazine-1-carboximidamide]
IC50 [1]: 61.1 ± 1.48 µM | IC50 [2]: 133 ± 1.84 µM

[H]/N=C(/N)NN=C(/C=C/c1ccccc1)c1cccn1Cc1ccc([N+](=O)[O-])cc1 [Compound 2l, (Z)-2-((E)-1-(1-(4-Nitrobenzyl)-1H-pyrrol-2-yl)-3-phenylallylidene)hydrazine-1-carboximidamide]
IC50 [1]: 43.6 ± 0.66 µM | IC50 [2]: 193.35 ± 0.07 µM

[H]/N=C(/N)NN=C(/C=C/c1ccccc1)c1cccn1Cc1cccc(Br)c1 [Compound 2m, (Z)-2-((E)-1-(1-(3-Bromobenzyl)-1H-pyrrol-2-yl)-3-phenylallylidene)hydrazine-1-carboximidamide]
IC50 [1]: 51.14 ± 0.22 µM | IC50 [2]: 134 ± 3.11 µM

[H]/N=C(/N)NN=C(/C=C/c1ccccc1)c1cccn1Cc1cccc(C#N)c1 [Compound 2o, (Z)-2-((E)-1-(1-(3-Cyanobenzyl)-1H-pyrrol-2-yl)-3-phenylallylidene)hydrazine-1-carboximidamide]
IC50 [1]: 75.4 ± 1.03 µM | IC50 [2]: 147.8 ± 0.28 µM

[H]/N=C(/N)NN=C(/C=C/c1ccccc1)c1cccn1Cc1cc(F)ccc1C [Compound 2p, (Z)-2-((E)-1-(1-(5-Fluoro-2-methylbenzyl)-1H-pyrrol-2-yl)-3-phenylallylidene)hydrazine-1-carboximidamide]
IC50 [1]: 80.13 ± 0.16 µM | IC50 [2]: 145 ± 0.28 µM

[H]/N=C(/N)NN=C(/C=C/c1ccccc1)c1cccn1Cc1ccc(C(C)(C)C)cc1 [Compound 2q, (Z)-2-((E)-1-(1-(4-(tert-Butyl)benzyl)-1H-pyrrol-2-yl)-3-phenylallylidene)hydrazine-1-carboximidamide]
IC50 [1]: 48.52 ± 0.23 µM | IC50 [2]: 167.5 ± 0.71 µM

[H]/N=C(/N)NN=C(/C=C/c1ccccc1)c1cccn1Cc1ccc(C(C)C)cc1 [Compound 2r, (Z)-2-((E)-1-(1-(4-Isopropylbenzyl)-1H-pyrrol-2-yl)-3-phenylallylidene)hydrazine-1-carboximidamide]
IC50 [1]: 50.4 ± 0.91 µM | IC50 [2]: 191.3 ± 1.41 µM

[H]/N=C(/N)NN=C(/C=C/c1ccc(F)cc1)c1cccn1Cc1ccc(Br)cc1 [Compound 3a, (Z)-2-((E)-1-(1-(4-Bromobenzyl)-1H-pyrrol-2-yl)-3-(4-fluorophenyl)allylidene)hydrazine-1-carboximidamide]
IC50 [1, 3]: 86.09 ± 0.33 µM | IC50 [2, 4]: 165.7 ± 1.34 µM

[H]/N=C(/N)NN=C(/C=C/c1ccc(C(F)(F)F)cc1)c1cccn1Cc1ccc(CCCC)cc1 [Compound 3b, (Z)-2-((E)-1-(1-(4-Butylbenzyl)-1H-pyrrol-2-yl)-3-(4-(trifluoromethyl)phenyl)allylidene)hydrazine-1-carboximidamide]
IC50 [1, 3]: 57.4 ± 1.12 µM | IC50 [2, 4]: 204.6 ± 0.42 µM

[H]/N=C(/N)NN=C(/C=C/c1ccc(OC)c(OC)c1)c1cccn1Cc1ccc(F)cc1C(F)(F)F [Compound 3c, (Z)-2-((E)-3-(3,4-Dimethoxyphenyl)-1-(1-(4-fluoro-2-(trifluoromethyl)benzyl)-1H-pyrrol-2-yl)allylidene)hydrazine-1-carboximidamide]
IC50 [1, 3]: 58.19 ± 0.44 µM | IC50 [2, 4]: 204 ± 2.33 µM

[H]/N=C(/N)NN=C(/C=C/c1ccc(C(C)(C)C)cc1)c1cccn1Cc1ccc(F)cc1F [Compound 3d, (Z)-2-((E)-3-(4-(tert-Butyl)phenyl)-1-(1-(2,4-difluorobenzyl)-1H-pyrrol-2-yl)allylidene)hydrazine-1-carboximidamide]
IC50 [1, 3]: 104.3 ± 0.14 µM | IC50 [2, 4]: 221.8 ± 1.27 µM

[H]/N=C(/N)NN=C(/C=C/c1ccc(OC)c(OC)c1)c1cccn1Cc1cc(OC)cc(OC)c1 [Compound 3e, (Z)-2-((E)-1-(1-(3,5-Dimethoxybenzyl)-1H-pyrrol-2-yl)-3-(3,4-dimethoxyphenyl)allylidene)hydrazine-1-carboximidamide]
IC50 [1]: 57.2 ± 2.47 µM | IC50 [2]: 162 ± 2.43 µM
